The structures appear in SMILES notation. Numbered stars: 1 amine (or outer) side, 2 acyl side, 3 side chain; on linkers, the order of the positions; unused ones are H or OH. Bridge positions count the residues as written; N and C are the ends. Square brackets hold non-standard residues; d marks the D form. Side chains are listed from the residue outwards. Peptide text beside a SMILES is read from it. * marks the point of attachment. C20 diacid = O=C(O)CCCCCCCCCCCCCCCCCCC(=O)*; C18 diacid = O=C(O)CCCCCCCCCCCCCCCCC(=O)*; γGlu = O=C(O)[C@H](CCC(=O)[*:2])N[*:1]; cisHyp = O=C(O)[C@@H]1C[C@H](O)CN1; Hyp = O=C(O)[C@@H]1C[C@@H](O)CN1; AEEA = NCCOCCOCC(=O)O

The assay has as its target T1, human amylin receptor (Homo sapiens, UniProt O60896+P30988).
T1 construct: host or cells: CHO-K1/Ga15/AMY3 cells, further stably transfected with a CRE-luciferase plasmid
T1 sequence (P30988 25-474): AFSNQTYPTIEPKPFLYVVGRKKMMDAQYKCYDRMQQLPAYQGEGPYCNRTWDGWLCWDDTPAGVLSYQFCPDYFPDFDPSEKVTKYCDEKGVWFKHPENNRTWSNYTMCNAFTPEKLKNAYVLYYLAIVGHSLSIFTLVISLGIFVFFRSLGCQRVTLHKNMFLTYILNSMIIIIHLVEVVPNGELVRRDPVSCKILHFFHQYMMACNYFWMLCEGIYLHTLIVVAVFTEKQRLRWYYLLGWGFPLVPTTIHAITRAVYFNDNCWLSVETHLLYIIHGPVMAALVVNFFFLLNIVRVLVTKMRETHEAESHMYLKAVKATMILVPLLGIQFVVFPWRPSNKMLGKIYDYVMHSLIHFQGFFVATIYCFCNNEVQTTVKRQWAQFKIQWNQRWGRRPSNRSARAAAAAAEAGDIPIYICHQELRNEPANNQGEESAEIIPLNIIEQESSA
T1 sequence (O60896 24-148 partner): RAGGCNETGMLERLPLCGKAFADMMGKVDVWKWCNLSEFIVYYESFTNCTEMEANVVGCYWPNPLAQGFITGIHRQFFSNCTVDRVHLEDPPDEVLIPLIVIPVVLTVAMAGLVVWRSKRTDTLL
The experiment in a line: Luciferase assay of amylin derivatives in amylin receptor/CRE-luc CHO cell line. It is filed as cell-based. Particulars: CHO-K1/Ga15/AMY3 CRE-luc cells, 24 hours incubation, F12 medium containing 10% FBS; read-out: EC50.

Method: The experiment was intended to detect the activity or efficacy of the amylin derivatives on a human amylin receptor in vitro by luciferase assay.
50 μL of growth medium (F12 medium containing 10% FBS) was added into each well of a white 96-well plate, and the stably transfected amylin/CRE-lue CHO cells were inoculated into the white 96-well plate at a density of about 20,000 cells/well for activity determination.

A word on the EC50: it is the concentration that produces a half-maximal response. As to `CC[C@H](C)[C@H](NC(=O)[C@H](CCCCNC(=O)COCCOCCNC(=O)CC[C@H](NC(=O)CCCCCCCCCCCCCCCCC(=O)O)C(=O)O)NC(=O)CNC(=O)[C@H](CC(C)C)NC(=O)[C@H](CC(N)=O)NC(=O)[C@H](CC(N)=O)NC(=O)[C@H](CO)NC(=O)[C@H](CO)NC(=O)[C@H](Cc1c[nH]cn1)NC(=O)[C@H](CCCNC(=N)N)NC(=O)[C@H](CC(C)C)NC(=O)[C@H](Cc1ccccc1)NC(=O)[C@H](CC(=O)O)NC(=O)[C@H](C)NC(=O)[C@H](CC(C)C)NC(=O)[C@H](CCCNC(=N)N)NC(=O)[C@H](CCC(N)=O)NC(=O)[C@@H](NC(=O)[C@H](C)NC(=O)[C@@H]1CSSC[C@H](NC(=O)[C@@H](N)CCCNC(=N)N)C(=O)N[C@@H](CC(N)=O)C(=O)N[C@@H]([C@@H](C)O)C(=O)N[C@@H](C)C(=O)N[C@@H]([C@@H](C)O)C(=O)N1)[C@@H](C)O)C(=O)N[C@@H](CC(C)C)C(=O)N1CCC[C@H]1C(=O)N1CCC[C@H]1C(=O)N[C@H](C(=O)N[C@@H](CC(N)=O)C(=O)N[C@H](C(=O)NCC(=O)N[C@@H](CO)C(=O)N[C@@H](CC(N)=O)C(=O)N[C@H](C(=O)N1C[C@H](O)C[C@H]1C(N)=O)[C@@H](C)O)C(C)C)[C@@H](C)O` [PD121] (H-RCNTATCATQRLADFLRHSSNNLGK([AEEA-γGlu-C18 diacid])ILPPTNVGSNT[Hyp]-NH2; disulfide 2-7), the EC50 came to 18 pM.

On to `CC[C@H](C)[C@H](NC(=O)[C@@H]1CCCN1C(=O)CNC(=O)[C@H](CC(C)C)NC(=O)[C@H](CC(N)=O)NC(=O)[C@H](CC(N)=O)NC(=O)[C@H](CO)NC(=O)[C@H](CO)NC(=O)[C@H](Cc1c[nH]cn1)NC(=O)[C@H](CCCNC(=N)N)NC(=O)[C@H](CC(C)C)NC(=O)[C@H](Cc1ccccc1)NC(=O)[C@H](CC(=O)O)NC(=O)[C@H](C)NC(=O)[C@H](CC(C)C)NC(=O)[C@H](CCCNC(=N)N)NC(=O)[C@H](CCC(N)=O)NC(=O)[C@@H](NC(=O)[C@H](C)NC(=O)[C@@H]1CSSC[C@H](NC(=O)[C@H](CCCCN)NC(=O)COCCOCCNC(=O)CC[C@H](NC(=O)CCCCCCCCCCCCCCCCCCC(=O)O)C(=O)O)C(=O)N[C@@H](CC(N)=O)C(=O)N[C@@H]([C@@H](C)O)C(=O)N[C@@H](C)C(=O)N[C@@H]([C@@H](C)O)C(=O)N1)[C@@H](C)O)C(=O)N[C@@H](CC(C)C)C(=O)N1CCC[C@H]1C(=O)N1CCC[C@H]1C(=O)N[C@H](C(=O)N[C@@H](CC(N)=O)C(=O)N[C@H](C(=O)NCC(=O)N[C@@H](CO)C(=O)N[C@@H](CC(N)=O)C(=O)N[C@H](C(=O)N1C[C@H](O)C[C@H]1C(N)=O)[C@@H](C)O)C(C)C)[C@@H](C)O` [PD122] ({C20 diacid-γGlu-AEEA}-KCNTATCATQRLADFLRHSSNNLGPILPPTNVGSNT[Hyp]-NH2; disulfide 2-7), for which the EC50 was found to be 48 pM.

For `CC[C@H](C)[C@H](NC(=O)[C@@H]1CCCN1C(=O)[C@H](CCCCNC(=O)CC[C@H](NC(=O)CCCCCCCCCCCCCCCCCCC(=O)O)C(=O)O)NC(=O)[C@H](CC(C)C)NC(=O)[C@H](CC(N)=O)NC(=O)[C@H](CC(N)=O)NC(=O)[C@H](CO)NC(=O)[C@H](CO)NC(=O)[C@H](Cc1c[nH]cn1)NC(=O)[C@H](CCCNC(=N)N)NC(=O)[C@H](CC(C)C)NC(=O)[C@H](Cc1ccccc1)NC(=O)[C@H](CCC(=O)O)NC(=O)[C@H](C)NC(=O)[C@H](CC(C)C)NC(=O)[C@H](CCCNC(=N)N)NC(=O)[C@H](CCC(N)=O)NC(=O)[C@@H](NC(=O)[C@H](C)NC(=O)[C@@H]1CSSC[C@H](NC(=O)[C@@H](N)CCCNC(=N)N)C(=O)N[C@@H](CC(N)=O)C(=O)N[C@@H]([C@@H](C)O)C(=O)N[C@@H](C)C(=O)N[C@@H]([C@@H](C)O)C(=O)N1)[C@@H](C)O)C(=O)N[C@@H](CC(C)C)C(=O)N1CCC[C@H]1C(=O)N1CCC[C@H]1C(=O)N[C@H](C(=O)N[C@@H](CC(N)=O)C(=O)N[C@H](C(=O)NCC(=O)N[C@@H](CO)C(=O)NCC(=O)N[C@H](C(=O)N1C[C@H](O)C[C@H]1C(N)=O)[C@@H](C)O)C(C)C)[C@@H](C)O` [PD041] (H-RCNTATCATQRLAEFLRHSSNNLK([γGlu-C20 diacid])PILPPTNVGSGT[Hyp]-NH2; disulfide 2-7), the EC50 was 259 pM. As for `CC[C@H](C)[C@H](NC(=O)[C@@H]1CCCN1C(=O)[C@@H]1CCCN1C(=O)[C@H](CC(C)C)NC(=O)[C@H](CC(N)=O)NC(=O)[C@H](CC(N)=O)NC(=O)[C@H](CO)NC(=O)[C@H](CO)NC(=O)[C@H](Cc1c[nH]cn1)NC(=O)[C@H](CCCNC(=N)N)NC(=O)[C@H](CC(C)C)NC(=O)[C@H](Cc1ccccc1)NC(=O)[C@H](CC(=O)O)NC(=O)[C@H](C)NC(=O)[C@H](CC(C)C)NC(=O)[C@H](CCCNC(=N)N)NC(=O)[C@H](CCC(N)=O)NC(=O)[C@@H](NC(=O)[C@H](C)NC(=O)[C@@H]1CSSC[C@H](NC(=O)[C@H](CCCCN)NC(=O)CC[C@H](NC(=O)CCCCCCCCCCCCCCCCCCC(=O)O)C(=O)O)C(=O)N[C@@H](CC(N)=O)C(=O)N[C@@H]([C@@H](C)O)C(=O)N[C@@H](C)C(=O)N[C@@H]([C@@H](C)O)C(=O)N1)[C@@H](C)O)C(=O)N[C@@H](CC(C)C)C(=O)N1CCC[C@H]1C(=O)N1CCC[C@H]1C(=O)N[C@H](C(=O)N[C@@H](CC(N)=O)C(=O)N[C@H](C(=O)NCC(=O)N[C@@H](CO)C(=O)N[C@@H](CC(N)=O)C(=O)N[C@H](C(=O)N1CCC[C@H]1C(N)=O)[C@@H](C)O)C(C)C)[C@@H](C)O` [PD163] ({C20 diacid-γGlu}-KCNTATCATQRLADFLRHSSNNLPPILPPTNVGSNTP-NH2; disulfide 2-7 (inferred)), the figure is 84 pM. In the case of `CC[C@H](C)[C@H](NC(=O)[C@@H]1CCCN1C(=O)[C@H](CCCCNC(=O)CC[C@H](NC(=O)CCCCCCCCCCCCCCCCCCC(=O)O)C(=O)O)NC(=O)[C@H](CC(C)C)NC(=O)[C@H](CC(N)=O)NC(=O)[C@H](CC(N)=O)NC(=O)[C@H](CO)NC(=O)[C@H](CO)NC(=O)[C@H](Cc1c[nH]cn1)NC(=O)[C@H](CCCNC(=N)N)NC(=O)[C@H](CC(C)C)NC(=O)[C@H](Cc1ccccc1)NC(=O)[C@H](CCC(=O)O)NC(=O)[C@H](C)NC(=O)[C@H](CC(C)C)NC(=O)[C@H](CCCNC(=N)N)NC(=O)[C@H](CCC(N)=O)NC(=O)[C@@H](NC(=O)[C@H](C)NC(=O)[C@@H]1CSSC[C@H](NC(=O)[C@@H](N)CCCNC(=N)N)C(=O)N[C@@H](CC(N)=O)C(=O)N[C@@H]([C@@H](C)O)C(=O)N[C@@H](C)C(=O)N[C@@H]([C@@H](C)O)C(=O)N1)[C@@H](C)O)C(=O)N[C@@H](CC(C)C)C(=O)N1CCC[C@H]1C(=O)N1CCC[C@H]1C(=O)N[C@H](C(=O)N[C@@H](CC(N)=O)C(=O)N[C@H](C(=O)NCC(=O)N[C@@H](CO)C(=O)N[C@@H](CC(N)=O)C(=O)N[C@H](C(=O)N1C[C@@H](O)C[C@H]1C(N)=O)[C@@H](C)O)C(C)C)[C@@H](C)O` [PD055] (H-RCNTATCATQRLAEFLRHSSNNLK([γGlu-C20 diacid])PILPPTNVGSNT[cisHyp]-NH2; disulfide 2-7), the EC50 came to 909 pM.

Source of the values: US20260166128A1, “HUMAN AMYLIN ANALOG, AND DERIVATIVE THEREOF AND USE THEREOF” (priority 2022, published 2026).
